In PubChem BioAssay (NCI):
“And” between values parts separate entries of the source, which are not always exact repeats. Equal values may be shown once.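 All cell lines were grown in 96-well plates and treated with compound for 48 hours. GI50 = concentration required for 50% inhibition of growth. TGI denotes the concentration required for complete inhibition of growth.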

Assays:
Test in all cases: NCI tumour cell line growth inhibition, 48 h
786-0 renal = tested on: 786-0 renal
CAKI-1 renal = tested on: CAKI-1 renal
LXFL 529 NSCLC = tested on: LXFL 529 NSCLC
MALME-3M melanoma = tested on: MALME-3M melanoma
MOLT-4 leukemia = tested on: MOLT-4 leukemia
OVCAR-3 ovarian = tested on: OVCAR-3 ovarian
SF-539 CNS = tested on: SF-539 CNS
SNB-78 CNS = tested on: SNB-78 CNS
SR leukemia = tested on: SR leukemia
NCI-H226 lung = tested on: NCI-H226 lung

SMILES | TGI (786-0 renal) [µM] | TGI (CAKI-1 renal) | TGI (LXFL 529 NSCLC) [µM] | TGI (MALME-3M melanoma) | TGI (MOLT-4 leukemia) | TGI (OVCAR-3 ovarian) | TGI (SF-539 CNS) | TGI (SNB-78 CNS) [µM] | TGI (SR leukemia) [µM] | TGI (NCI-H226 lung) | GI50 (786-0 renal) [µM] | GI50 (MALME-3M melanoma) [µM] | GI50 (MOLT-4 leukemia) | GI50 (NCI-H226 lung) [µM] | GI50 (OVCAR-3 ovarian) [µM] | GI50 (SF-539 CNS) [µM] | GI50 (SR leukemia) [µM] | GI50 (LXFL 529 NSCLC) [µM] | GI50 (SNB-78 CNS) [µM]
COC(=O)c1c2c(cc3c1CC1(Cc4cc5c(c(C(C)=O)c4C1)CCC5)C3)CCC2 (configuration not stated) | > 100 | > 100 µM | > 100 | > 100 µM | > 100 µM | > 100 µM | > 100 µM | > 100 | > 100 |  |  |  |  |  |  |  |  |  | 
COc1ccc(CCc2cc(OC)cc(OC)c2)cc1 | > 100 | > 100 µM | > 100 | > 83.7 µM | 56.5 µM | > 65.9 µM | > 100 µM | > 100 | > 100 | > 100 µM |  |  |  |  |  |  |  |  | 
Cc1cc(N(CCC#N)CCC#N)ccc1N=Nc1ccc(Br)cc1 | 38.3 | > 51.4 µM | > 100 | > 100 µM | > 58.8 µM | > 87.2 µM | > 51.9 µM | > 65.8 |  | > 46.5 µM |  |  |  |  |  |  |  |  | 
CC(C)=CCC(OC(=O)C=C(C)C)C1=CC(=O)c2c(O)ccc(O)c2C1=O (configuration not stated) | 6.86 | 3.12 µM and 2 µM |  | 3.09 µM and 1.07 µM | 1.29 µM and 1.42 µM | 2.07 µM and 2.62 µM | 4.46 µM and 4.93 µM | 5.88 | > 100 | 4.02 µM and 6.72 µM | 2.59 | 0.694 | 0.182 µM and 0.0424 µM | 1.99 | 0.5 | 2.02 | 0.123 |  | 
CN1CCc2c1nc(-c1ccc(Cl)cc1)c1c2N(C)CC1 | > 100 | 29.9 µM | 77 | > 100 µM | 31.4 µM | 22.8 µM | 32.9 µM | > 100 |  |  |  |  |  |  |  |  |  |  | 
CC1=NN(C(=O)c2ccc(Cl)cc2)C(=O)/C1=C/c1ccccc1O | > 100 | > 100 µM | > 100 | > 100 µM | > 100 µM | > 100 µM | > 100 µM | > 100 |  |  |  |  |  |  |  |  |  |  | 
CC(C)OP(=O)(OC(C)C)/C(N)=N/Nc1ccc([N+](=O)[O-])cc1 | > 100 | > 100 µM | > 100 | > 100 µM | > 100 µM | > 100 µM | > 100 µM | > 100 | > 100 | > 100 µM |  |  |  |  |  |  |  |  | 
COC(=O)CC(NC(=O)OCc1ccccc1)C(C(=O)OCc1ccccc1)C(C)(OC)OC (configuration not stated) | > 100 |  | 57.2 | 80.9 µM | 33 µM | > 100 µM | > 100 µM |  | 53 | 97.5 µM |  |  |  |  |  |  |  |  | 
N.N.N.N.N.O=[N+]([O-])[O-].[Co+3].[O-][Cl+3]([O-])([O-])[O-] | > 100 |  | > 100 | > 100 µM | > 100 µM | > 100 µM | > 100 µM | > 100 |  |  | > 100 | > 100 | > 100 µM |  | > 100 | > 100 |  | > 100 | > 100
CC(C)(C)C(=CS(=O)/N=C/c1ccccc1)C(C)(C)C (configuration not stated) | > 100 | > 100 µM | 76.5 | 75.9 µM | 54.3 µM | > 100 µM | > 100 µM | > 100 | 58.9 | > 100 µM |  |  |  |  |  |  |  |  | 
O=C1/C(=C/c2ccccc2)CN(C(=O)CCN2CCCC2)C/C1=C\c1ccccc1 | 1.94 | 14.8 µM | 4.36 | 11.4 µM | 1.68 µM | 7.66 µM | 5.4 µM | 16.5 | 1.07 | 13.9 µM |  |  |  |  |  |  |  |  | 
O=c1ncccn1C1OC(CO)C(O)C1O (configuration not stated) | > 100 | > 100 µM | > 100 | > 100 µM |  |  |  | > 100 |  | > 100 µM |  |  |  |  |  |  |  |  | 
CC(=O)O[C@]1(C)OC(=O)[C@@H](CC(C)C)N1[N+](=O)[O-] | > 100 |  | > 100 | > 100 µM | > 100 µM | > 100 µM | > 100 µM | > 100 | > 100 | > 100 µM |  |  |  |  |  |  |  |  | 
COc1ccc(/C(Cl)=C/c2cc(OC)ccc2OC)cc1 | > 100 |  | > 100 | > 100 µM | > 100 µM |  | > 100 µM | > 100 | > 100 | > 100 µM |  |  |  |  |  |  |  |  | 
C#Cc1c(C)c(/C=C/C(C)=C/C(=O)OC)n(C)c1C | > 100 | > 100 µM | > 100 | > 100 µM | > 100 µM | > 100 µM | > 100 µM | > 100 |  | > 100 µM |  |  |  |  |  |  |  |  | 
O=S(=O)(NCn1ccc2ccccc21)c1ccccc1 | > 100 |  | > 100 | > 100 µM | > 100 µM | > 100 µM | > 100 µM | > 100 | > 74.3 | > 100 µM |  |  |  |  |  |  |  |  | 

SMILES | TGI (786-0 renal) [µM] | TGI (CAKI-1 renal) | TGI (LXFL 529 NSCLC) [µM] | TGI (MALME-3M melanoma) | TGI (MOLT-4 leukemia) | TGI (OVCAR-3 ovarian) | TGI (SF-539 CNS) | TGI (SNB-78 CNS) [µM] | TGI (SR leukemia) [µM] | TGI (NCI-H226 lung) | GI50 (786-0 renal) [µM] | GI50 (MALME-3M melanoma) [µM] | GI50 (MOLT-4 leukemia) | GI50 (NCI-H226 lung) [µM] | GI50 (OVCAR-3 ovarian) [µM] | GI50 (SF-539 CNS) [µM] | GI50 (SR leukemia) [µM] | GI50 (LXFL 529 NSCLC) [µM] | GI50 (SNB-78 CNS) [µM]
CC1CCSC(N(C(=O)N(C)c2ccccc2)c2ccccc2)=N1 (configuration not stated) | > 100 | > 100 µM | > 100 | > 100 µM | > 100 µM | > 100 µM | > 100 µM | > 100 |  | > 100 µM |  |  |  |  |  |  |  |  | 
NNC(=O)C(=O)N/N=C1\CCC(=O)CC1C(=O)CCC(=O)Nc1ccc(Cl)cc1 (configuration not stated) | > 100 | > 100 µM | > 100 | > 100 µM | > 100 µM | > 100 µM | > 100 µM | > 100 |  | > 100 µM |  |  |  |  |  |  |  |  | 
C=CCC1=C(C)C[C@@H]2CCC(=O)C=C12 | > 100 | > 100 µM | > 100 | > 100 µM | > 100 µM | > 100 µM | > 100 µM | > 100 |  |  |  |  |  |  |  |  |  |  | 
CCOC(=O)N1CCc2cc(OC)c(OC)cc2/C1=C\c1ccc(OC)c(OC)c1 | 52.1 |  | > 100 | 57.1 µM | 91.1 µM | 82.3 µM | 59.2 µM | > 100 | > 100 | 61.2 µM |  |  |  |  |  |  |  |  | 
Cc1c(NC(=S)NC(=O)c2ccc([N+](=O)[O-])cc2)c(=O)n(-c2ccccc2)n1C | > 100 | > 100 µM | > 100 | > 100 µM | > 100 µM | > 100 µM | > 100 µM | > 100 | > 100 | > 100 µM |  |  |  |  |  |  |  |  | 
CCCC(=O)N[C@H]1C2C3CC4C5CC(C42)C1(C)C53 (some centres not stated) | > 100 | > 100 µM |  | > 100 µM | > 100 µM | > 100 µM | > 100 µM | > 100 | > 100 | > 100 µM |  |  |  |  |  |  |  |  | 
CC(C)CCCC(C)[C@H]1CCC2[C@@H]3CCC4Nc5c(cnn5-c5ccccc5)C[C@]4(C)C3CC[C@@]21C (some centres not stated) | > 100 | 78.4 µM | > 100 | > 100 µM | > 100 µM | > 100 µM | > 100 µM | > 100 |  | > 100 µM |  |  |  |  |  |  |  |  | 
O=C(O)CCNCCCCNCCC(=O)O | > 100 | > 100 µM | > 100 | > 100 µM | > 100 µM | > 100 µM | > 100 µM |  |  | > 100 µM |  |  |  |  |  |  |  |  | 
c1ccc2c(c1)oc1ccc3nsnc3c12 | > 100 | > 100 µM | > 100 | > 100 µM | > 100 µM | > 100 µM | > 100 µM |  | > 100 | > 100 µM |  |  |  |  |  |  |  |  | 
CC(C)Cc1ccc(C(C)CC2=CCC(CN(C)C)C2=O)cc1 (configuration not stated) | 3.34 | 3.28 µM | 3.11 | 13.1 µM | 5.8 µM | 24.9 µM | 30.9 µM | 14.7 | 3.96 | 33.7 µM |  |  |  |  |  |  |  |  | 
CCOC(=O)CCn1ncc(Cl)c(Cl)c1=O | 34.7 | 10.8 µM | 10.5 | 34.4 µM | 11.7 µM | 10.8 µM | 27.3 µM | 22.1 | 7.28 | 25.3 µM |  |  |  |  |  |  |  |  | 
C=CCO/N=C(\OC(=O)c1ccc([N+](=O)[O-])cc1)c1ccccc1 | > 100 | > 100 µM | > 100 | > 100 µM |  | > 100 µM | > 100 µM | > 100 |  | > 100 µM |  |  |  |  |  |  |  |  | 
N/N=C1\C(=O)N(c2ccc(Cl)cc2Cl)C(=O)C(=O)C1c1nc2ccccc2o1 (configuration not stated) | > 100 | > 100 µM | > 100 | > 100 µM | > 100 µM | > 100 µM | > 100 µM | > 100 |  | > 100 µM |  |  |  |  |  |  |  |  | 
Cc1cccc(C)c1NC(=O)CCc1nc(=S)[nH][nH]1 | > 100 | > 100 µM | > 100 | > 100 µM | > 100 µM |  | > 100 µM | > 100 |  | > 100 µM |  |  |  |  |  |  |  |  | 
C[C@]12CC[C@H](O)CC1=CC[C@@H]1C2CC[C@]2(C)Nc3c(cnn3-c3ccccc3)CC12 (some centres not stated) | 7.16 | 24.8 µM | 19.7 | 36 µM | 5.15 µM | 40.2 µM | 2.99 µM | 67.7 |  | 56.1 µM |  |  |  |  |  |  |  |  | 
